Results published in patent US7375130B2, “Antidiabetic compounds comprising benzofuran and benzothiophene derivatives” (Merck Patent Gesellschaft mit beschrankter Haftung, priority 2003, dated 2008).

Assays:
INS1 = test: Insulin secretion test (SEC INS1) according to Endocrinology, 1992 vol. 130 (1) pp. 167-178; format: cell-based; conditions: Rattus norvegicus, compounds tested at 10^-5 M, read-out: SEC INS1 (insulin-secreting activity)
Protocol: Insulin Secretion Test According to the Method Described in Endocrinology, 1992 vol. 130 (1) pp. 167-178
The compounds according to the invention were tested at 10^−5 M.
The insulin-secreting activities are collated in Table B.

[1] = test system: isolated islets of Langerhans; test: Insulin secretion in isolated rat islets of Langerhans in static incubation, as a function of the glucose concentration; format: cell-based; conditions: 90 minutes incubation, RIA, relative to glucose alone; for Insulin secretion stimulation factor, Product + G 2.8 mM: glucose 2.8 mM; for Insulin secretion stimulation factor, Product + G 8 mM: glucose 8 mM
Protocol: Study of the Activity on Isolated Rat Islets
Effect of the chemical compounds on insulin secretion as a function of the glucose concentration, in vitro, in isolated islets of Langerhans in static incubation (Table C):
The islets of Langerhans obtained by digestion of exocrine pancreatic tissue with collagenase, and then purified on Ficoll gradient, are incubated for 90 minutes in the presence of two concentrations of glucose, (2.8 mM or 8 mM), in the presence or absence of the chemical compound. The insulin secretion is assayed by RIA in the incubation medium.
The potential of the various chemical compounds to stimulate insulin secretion is estimated by calculating the stimulation factor*.
A compound stimulates the secretion of insulin if this factor is greater than or equal to 130% for a given dose of glucose.
where: • G=secretion of insulin (pmol/min. islet) in the presence of glucose alone • G+product=secretion of insulin (pmol/min. islet) in the presence of the same concentration of glucose and of the test chemical compound.

| Compound | activity at 10 µM (INS1) | also measured |
| --- | --- | --- |
| CCOC(=O)c1sc2ccccc2c1OCC(=O)c1ccccc1OC [Product 3] | 320% |  |
| CCOC(=O)c1sc2ccccc2c1OCC(=O)c1ccc(F)cc1 [Product 7] | 257% |  |
| CCOC(=O)c1sc2ccccc2c1OCC(=O)c1cccc(OC)c1 [Product 8] | 252% |  |
| CCOC(=O)c1sc2ccccc2c1OC(C)C(=O)c1ccccc1 (stereo not drawn) [Product 10] | 225% |  |
| CCOC(=O)c1sc2ccccc2c1OCC(=O)c1ccc(OC)cc1OC [Product 11] | 258% |  |
| CCOC(=O)c1sc2ccccc2c1OCC(=O)C(C)(C)C [Product 12] | 230% | Insulin secretion stimulation factor, Product + G 2.8 mM ([1]; dose 10^-5 M): 93%; Insulin secretion stimulation factor, Product + G 8 mM ([1]; dose 10^-5 M): 186%; Insulin secretion stimulation factor, Product + G 2.8 mM ([1]; dose 10^-6 M): 90%; Insulin secretion stimulation factor, Product + G 8 mM ([1]; dose 10^-6 M): 189% |
| CCOC(=O)c1sc2ccccc2c1OCC(=O)c1ccc2ccccc2c1 [Product 13] | 240% |  |
| CCOC(=O)c1sc2ccccc2c1OCc1cccc(C#N)c1 [Product 29] | 249% |  |
